This is an account of results in patent publication US6316500A, “Aliphatically unsaturated hydroxy benzoates and preservative compositions thereof” (ISP Investments Inc., priority 1999, dated 2001).

Series [1] can be described thus: Partition coefficients (log of oil/water solubility).
Excerpt: A greater water partitioning is indicated by a low log value.
Another series has as its system A. niger 16404. The series is described as follows: Activity test: preservative challenge test in emulsion, A. niger 16404. The class given is cell-based. The following applies: 0.5% preservative in emulsion. The protocol:
(§1) The emulsion was prepared by separately mixing components in phase A and phase B at 75-80° C. for 15 minutes. The phases were then combined and mixed for another 10 minutes and cooled to 45° C. with stirring. Preservative was then added followed by citric acid to adjust pH to from abut 6.5 to 7.5. Stirring of the resulting mixture was continued until a temperature of 30° C. was reached. The activity tests were carried out using the following microorganisms: A. niger, B. cepacia, C. albicans, E. coli, P. aeruginosa and S. aureus. 50 g aliquots of the test emulsion containing various amounts of the preservative admixture as reported in Tables I-V were inoculated with approximately 10^7 -10^8 of the test organisms. The test samples then were stirred to disperse the challenge inoculum. The samples were incubated and assayed at 48 hours, 7, 14, 21 and 28 days. The assays were performed on 1 g, of the test sample by serially diluting 10^3 to 10^6 of the original concentration. The plating medium for bacteria was Letheen agar and for fungi it was low pH Mycophil agar with Tween 20. Each plated sample was incubated for 48 hours at 37° C. for bacteria, 5 days at 25° C. for mold and 3 days at 25° C. for fungi. After incubation, readings of the number of colonies per milliliter (cfu/ml) were made results were determined, as reported in associated Tables IA-VA. At 21 days the test product was reinoculated with half of the original inoculum.

The subject of a further series is B. cepacia 25416. The series is described as follows: Activity test: preservative challenge test in emulsion, B. cepacia 25416. The following applies: 0.5% preservative in emulsion. Format: cell-based. How it is done:
as §1

A further series concerns C. albicans 10231. The series is described as follows: Activity test: preservative challenge test in emulsion, C. albicans 10231. The class given is cell-based. The following applies: 0.5% preservative in emulsion. The protocol: as §1
Another series relates to E. coli 8739. The series is described as follows: Activity test: preservative challenge test in emulsion, E. coli 8739. The settings on record: 0.5% preservative in emulsion. Format: cell-based. How it is done: as §1
Another series has as its system P. aeruginosa 9027. The series is described as follows: Activity test: preservative challenge test in emulsion, P. aeruginosa 9027. The following applies: 0.5% preservative in emulsion. The class given is cell-based. How it is done:
as §1

The subject of another series is S. aureus 6538. The series is described as follows: Activity test: preservative challenge test in emulsion, S. aureus 6538. Format: cell-based. The settings on record: 0.5% preservative in emulsion. The protocol:
as §1

For series [2] the following is noted: about 10 ppm, beer preservative; cited from earlier work.
Setting [3] is: 28 days, reinoculated at 21 days.

As a reminder, the Log P is the decadic logarithm of the partition coefficient of the neutral form, usually between octanol and water. Higher therefore signals a more lipophilic compound. On to `CCCCOC(=O)c1ccc(O)cc1` [Parahydroxy butyl benzoate], for which the “Log P” value in series [1] is recorded as 3.57.

Regarding `CCOC(=O)c1ccc(O)cc1` [Parahydroxy ethyl benzoate], the “Log P” value in series [1] was 2.47.

Consider `C#CCOC(=O)c1ccc(O)c(Cl)c1` [Propargyl 3-Chloro-4-Hydroxybenzoate], for which the “number of colonies per milliliter, 48 hr” value with A. niger 16404 (48 hr) is given as 10000 cfu/ml; in the series with B. cepacia 25416 (48 hr), > 10^6 cfu/ml; in the series on C. albicans 10231 (48 hr) it was 280000 cfu/ml; in the series on E. coli 8739 (48 hr) it was 30 cfu/ml; in the series with P. aeruginosa 9027 (48 hr), < 10 cfu/ml; in the series on S. aureus 6538 (48 hr), 9600 cfu/ml. In addition, the “number of colonies per milliliter, 7 days” value in the series on A. niger 16404 (7 days) is < 10 cfu/ml; with B. cepacia 25416 (7 days) it was < 10^6 cfu/ml; in the series with C. albicans 10231 (7 days), 370 cfu/ml; in the series on E. coli 8739 (7 days), < 10 cfu/ml; in the series with P. aeruginosa 9027 (7 days), < 10 cfu/ml; in the series with S. aureus 6538 (7 days) it was < 10 cfu/ml. Moreover, the “number of colonies per milliliter, 14 days” value in the series on A. niger 16404 (14 days) is on record as < 10 cfu/ml; in the series with B. cepacia 25416 (14 days) it was < 10^6 cfu/ml; in the series on C. albicans 10231 (14 days) it was < 10 cfu/ml; in the series on E. coli 8739 (14 days), < 10 cfu/ml; with P. aeruginosa 9027 (14 days), 80 cfu/ml; in the series on S. aureus 6538 (14 days), < 10 cfu/ml. Besides, the “number of colonies per milliliter, 21 days” value in the series on A. niger 16404 (21 days) is on record as < 10 cfu/ml; with B. cepacia 25416 (21 days) it was < 10^6 cfu/ml; in the series on C. albicans 10231 (21 days), < 10 cfu/ml; in the series with E. coli 8739 (21 days), < 10 cfu/ml; with P. aeruginosa 9027 (21 days), < 10 cfu/ml; with S. aureus 6538 (21 days), < 10 cfu/ml. Besides, the “number of colonies per milliliter, 28 days” value in the series with A. niger 16404 (setting [3]) is < 10 cfu/ml; in the series with B. cepacia 25416 (setting [3]), < 10^6 cfu/ml; in the series on C. albicans 10231 (setting [3]) it was < 10 cfu/ml; in the series with E. coli 8739 (setting [3]), < 10 cfu/ml; in the series with P. aeruginosa 9027 (setting [3]) it was < 10 cfu/ml; with S. aureus 6538 (setting [3]), < 10 cfu/ml.

As to `CCCCCCCOC(=O)c1ccc(O)cc1` [heptyl p-hydroxybenzoate], the solubility in beer entry in series [2] was “limited solubility in beer so that the beer becomes turbid at about 0 °C”.
